Key:
[1] = biological target: T1, AAD1 (v1) (Sphingobium herbicidovorans, UniProt Q8KSC8); assay: Colorimetric phenol detection assay of AAD1 (v1) activity (purified enzyme or E. coli extract); assay type: biochemical; conditions: for A510, AAD1 / A510, AAD1 (10x): substrate 1 mM; for A510, AAD1: 1 μg purified AAD1 (v1) per 0.16 ml assay; for A510, AAD1 (10x): 10 μg purified AAD1 (v1) per 0.16 ml assay; for activity of AAD1 (v1) E. coli extract on substrate: 0.5 mM substrate, 4 μl extract
T1 construct: made in house; host or cells: E. coli BL-21 Star (DE3), plasmid pDAB3203
T1 sequence (Q8KSC8 whole entry): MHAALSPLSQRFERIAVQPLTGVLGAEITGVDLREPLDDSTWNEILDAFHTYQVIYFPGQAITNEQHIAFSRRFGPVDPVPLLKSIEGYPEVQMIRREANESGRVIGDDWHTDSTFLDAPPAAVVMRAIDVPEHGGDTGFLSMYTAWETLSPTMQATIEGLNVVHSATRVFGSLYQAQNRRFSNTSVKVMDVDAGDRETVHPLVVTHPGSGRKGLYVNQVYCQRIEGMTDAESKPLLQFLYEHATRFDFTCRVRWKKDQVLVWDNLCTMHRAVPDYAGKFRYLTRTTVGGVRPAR

[2] = system: PAAD1.315.064 ARBTH; assay: In vitro plate test of herbicide cross resistance: homozygous T4 AAD1 (v3) Arabidopsis; assay type: in vivo, Arabidopsis thaliana; conditions: for root ratio / shoot ratio: resistant to sensitive biotype, >2 signifies resistance; for PAAD1.315.064 ARBTH root 150 / PAAD1.315.064 T3 ARBTH shoot 150: 7 days
Procedure: The ability of AAD1 (v3) to provide resistance to other aryloxyphenoxyalkanoate herbicides in transgenic Arabidopsis was determined using a modified in vitro plate assay. Seeds from wild-type Arabidopsis thaliana as well as Arabidopsis thaliana containing the plant optimized AAD1 (v3) gene (T4 homozygous plants id=PAAD1.315.064) were sterilized by agitating for 10 min in a 50% bleach solution. These seeds were then rinsed four times with sterile water to remove the bleach.
Dose response assays utilized a nutrient media (see below) supplemented with various rates of test compounds. The test compounds were added to the heated media (55° C.) as concentrated solutions in DMSO. Control wells had the appropriate amount of DMSO without any additional compound. The final concentration of DMSO never exceeded 1% (v/v). After thorough mixing, a 6 mL aliquot of the warm media containing the appropriate concentration of compound was added to each well of a 6-well, flat bottom, polystyrene tissue culture tray (Falcon 353046, Becton Dickson and Company, Franklin Lakes, N.J.). After the media solidified, approximately 20 to 30 Arabidopsis seeds were applied on top of the solidified media and the remaining 2 mL of media was poured over the seeds. The plates were lightly agitated to disperse the seeds, covered and allowed to cool until the media had completely solidified. The plates were incubated for 7 days at 25° C. under continual fluorescent lighting (75 μE m^−2 s^−1). Nutrient Media Composition was as described in Example 2.2 and in Somerville and Orgen (1982).
Assessment of Growth Reduction. The apical portion of the Arabidopsis plants grown in the treated media was assessed visually relative to the apical portion of the plants grown in the media containing only DMSO. Values were recorded as % growth reduction. Assessments of root growth inhibition of the Arabidopsis plants grown in the treated media were achieved by carefully extracting the plants from the media and measuring the length of the root. These root lengths were then compared to the root length of the control plants to determine a % growth reduction. A minimum of five plants were assessed for each treatment. The values recorded are an average of all the plants assessed. The calculated concentration to reach 50% inhibition effect (I50) were determined for both root and shoots of wildtype and AAD1-transformed Arabidopsis. The ratios of resistant to sensitive biotypes are included in Table 19. A ratio>2 for both root and shoot measurements generally signifies significant resistance. The higher the ratio, the greater the level of resistance. […] The broad phenoxy auxin resistance is the first reported in planta.

## C[C@@H](Oc1ccc(Oc2cnc3cc(Cl)ccc3n2)cc1)C(=O)O [quizalofop]
[1]; purified AAD1 (v1), 1 mM substrate
  activity relative to the dichlorprop rate: 76%

## CC(Oc1ccc(Oc2ncc(C(F)(F)F)cc2Cl)cc1)C(=O)O (centres unmarked) [haloxyfop]
[1]; Table 4
  A510, AAD1: 0.172
  A510, AAD1 (10x): 1.63

## CC(Oc1ccc(Cl)cc1Cl)C(=O)O (racemic) [(R,S)-dichlorprop, 2,4-dichlorophenoxypropionic acid]
[1]; 15 min
  activity of AAD1 (v1) E. coli extract on substrate: cleaved
[1]; Table 3, 15 min
  A510, AAD1: 0.566
  A510, AAD1 (10x): 2.594
[2]
  root ratio: 150
  shoot ratio: 2.5
  PAAD1.315.064 ARBTH root 150: 1.5 ppm
  PAAD1.315.064 T3 ARBTH shoot 150: 5 ppm

## Nc1c(Cl)c(F)nc(OCC(=O)O)c1Cl [Fluroxypyr]
[2]
  root ratio: 1
  shoot ratio: 0.5
  PAAD1.315.064 ARBTH root 150: 0.2 ppm
  PAAD1.315.064 T3 ARBTH shoot 150: 1 ppm
[2]; root and shoot assessment
  resistance afforded by AAD1 (v3) in plate test: did not effectively protect

## O=C(O)COc1ccc(Cl)cc1Cl [2,4-D, 2,4-dichlorophenoxyacetic acid]
[1]; 15 min
  activity of AAD1 (v1) E. coli extract on substrate: cleaved
[1]; AAD1 (v1) (pDAB3203), MOPS pH 6.75
  Vmax (A510 units): 0.11 A510 units
[1]; Table 3, 15 min
  A510, AAD1: 0.034
  A510, AAD1 (10x): 0.383
[1]; Table 8, 1 mM, 27 μg crude recombinant AAD1 (v1) extract from E. coli
  A510: 0.177
[1]; Table 8, relative to 2,4-D, crude AAD1 (v1) extract
  % 2,4-D: 100%
[1]; partially purified enzyme
  apparent Vmax, AAD1 (v1): 0.11 A510 units
[1]; purified AAD1 (v1)
  kcat: 0.045 s⁻¹
[1]; purified AAD1 (v1), Michaelis-Menten fit
  Vmax ± SE: 0.57 ± 0.00 μmol min^−1 mg^−1 AAD1
[2]
  PAAD1.315.064 ARBTH root 150: 0.04 ppm
  PAAD1.315.064 T3 ARBTH shoot 150: 10 ppm

— patent US10450549B2, “Aryloxyphenoxypropionate tolerance in turfrgass species and use of AAD1 as a selectable marker” (Dow AgroSciences, LLC, priority 2004, dated 2019)
